The target of one experiment is T1, S1P3 (Homo sapiens, UniProt Q99500).
T1 construct: expressed in transfected cells
Nature of the experiment: FLIPR calcium assay, cells expressing S1P3 and a G-protein. The experiment is classed as cell-based. The method, then: (§1) After removal of excess dye by washing, the cells are placed in the FLIPR TETRA instrument. Baseline fluorescence readings are taken prior to addition the compound to be tested. Agonists will trigger the receptor to interact with the G-protein, leading to an increase in intracellular calcium. The increase in intracellular calcium causes an increase in the fluorescence of the cells, due to the presence of fluo-4. This fluorescence increase is recorded by the FLIPR TETRA. After the calcium transient signal has decreased towards baseline, the standard agonist sphingosine 1-phosphate is added. If the test compound is an antagonist, an initial calcium signal will not be generated and the antagonist will prevent the generation of a calcium signal from sphingosine 1-phosphate.

The target of another experiment is T2, S1P1 (Homo sapiens, UniProt P21453).
T2 construct: expressed in transfected cells
Nature of the experiment: FLIPR calcium assay, cells expressing S1P1 and a G-protein. The format is cell-based. The method, then:
as §1

For the next experiment, the target named is S1P2 (Homo sapiens, UniProt O95136). Nature of the experiment: S1P2 values marked (33P S1P). The experiment is classed as binding. As to conditions: value marked (33P S1P).

Consider eleven molecules from patent US8703797B2, “Condensed ring pyridine compounds as subtype-selective modulators of sphingosine-1-phosphate-2 (S1P2) receptors” (Allergan, Inc., priority 2009, dated 2014).

T1 sequence (Q99500 whole entry, species assumed): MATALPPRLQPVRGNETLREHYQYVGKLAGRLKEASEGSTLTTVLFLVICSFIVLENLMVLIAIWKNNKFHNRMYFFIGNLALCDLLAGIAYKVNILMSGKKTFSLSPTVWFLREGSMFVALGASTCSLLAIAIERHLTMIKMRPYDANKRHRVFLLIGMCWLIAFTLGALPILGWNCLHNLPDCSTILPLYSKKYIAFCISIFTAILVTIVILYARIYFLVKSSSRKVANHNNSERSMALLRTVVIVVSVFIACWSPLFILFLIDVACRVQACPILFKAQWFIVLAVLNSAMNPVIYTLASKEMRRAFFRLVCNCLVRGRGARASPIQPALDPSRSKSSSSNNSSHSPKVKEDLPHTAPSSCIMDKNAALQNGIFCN
Chain of S1P2 (O95136 whole entry, species assumed): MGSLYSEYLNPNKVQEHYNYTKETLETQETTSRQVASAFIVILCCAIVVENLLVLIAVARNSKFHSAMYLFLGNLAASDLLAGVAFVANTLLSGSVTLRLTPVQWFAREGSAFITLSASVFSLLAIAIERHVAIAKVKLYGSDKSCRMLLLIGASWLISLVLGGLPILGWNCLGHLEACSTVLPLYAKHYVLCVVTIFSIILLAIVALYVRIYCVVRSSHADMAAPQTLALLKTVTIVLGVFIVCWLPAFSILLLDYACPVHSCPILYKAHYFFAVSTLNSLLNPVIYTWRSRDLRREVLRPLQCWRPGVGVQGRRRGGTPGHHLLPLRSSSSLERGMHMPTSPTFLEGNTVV
T2 sequence (P21453 whole entry, species assumed): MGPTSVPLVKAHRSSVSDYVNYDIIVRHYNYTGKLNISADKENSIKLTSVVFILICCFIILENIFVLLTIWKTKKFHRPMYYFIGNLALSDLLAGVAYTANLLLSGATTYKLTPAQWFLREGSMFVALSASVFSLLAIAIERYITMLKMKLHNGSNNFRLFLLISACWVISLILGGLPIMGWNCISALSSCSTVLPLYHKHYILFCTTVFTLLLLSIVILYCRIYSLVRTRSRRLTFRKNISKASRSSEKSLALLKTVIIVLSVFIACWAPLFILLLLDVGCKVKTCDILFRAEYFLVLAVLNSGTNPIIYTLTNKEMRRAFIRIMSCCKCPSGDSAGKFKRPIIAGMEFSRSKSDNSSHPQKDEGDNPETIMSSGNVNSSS

For “1-(2-chloro-6-propoxypyridin-4-yl)-3-((7-isopropyl-1,3-dimethyl-1H-pyrazolo[4,3-b]pyridin-5-yl)methyl)urea [Example 14]”, the results for the EC50 at S1P3, on S1P1 and on S1P2 were over 8300 nM, over 8300 nM and 0.5 nM, respectively.
Consider `CCOc1cc(NC(=O)NNc2cc(C(C)C)c3c(n2)c(C)nn3C)cc(Cl)n1` [Example 4, N-(2-chloro-6-ethoxypyridin-4-yl)-2-(7-isopropyl-1,3-dimethyl-1H-pyrazolo[4,3-b]pyridin-5-yl)hydrazinecarboxamide], for which the figures for the 50% effective concentration (EC50) at S1P3, on S1P1 and on S1P2 were over 8300 nM, over 8300 nM and 1.5 nM, respectively.
`CCOc1cc(NC(=O)NCc2cc(C(C)C)c3c(n2)c(C)nn3C)cc(Cl)n1` [Example 13, 1-(2-chloro-6-ethoxypyridin-4-yl)-3-((7-isopropyl-1,3-dimethyl-1H-pyrazolo[4,3-b]pyridin-5-yl)methyl)urea]: the EC50 on S1P3 was over 8300 nM; on S1P1, over 8300 nM; at S1P2, 0.5 nM.
For the molecule `CCCOc1cc(NC(=O)NNc2cc(C(C)C)c3c(n2)c(C)nn3C)cc(Cl)n1` [Example 15, N-(2-chloro-6-propoxypyridin-4-yl)-2-(7-isopropyl-1,3-dimethyl-1H-pyrazolo[4,3-b]pyridin-5-yl)hydrazinecarboxamide], the results for the half-maximal effective concentration (EC50) at S1P3, on S1P1 and at S1P2 were over 8300 nM, over 8300 nM and 0.2 nM, respectively.
In the case of `CCCCOc1cc(NC(=O)NNc2cc(C(C)C)c3c(n2)c(C)nn3C)cc(Cl)n1` [Example 16, N-(2-butoxy-6-chloropyridin-4-yl)-2-(7-isopropyl-1,3-dimethyl-1H-pyrazolo[4,3-b]pyridin-5-yl)hydrazinecarboxamide], the EC50 on S1P3 is over 8300 nM; on S1P1, over 8300 nM; at S1P2, 0.1 nM.
Regarding `CCCCOc1cc(NC(=O)NCc2cc(C(C)C)c3c(n2)c(C)nn3C)cc(Cl)n1` [Example 17, 1-(2-butoxy-6-chloropyridin-4-yl)-3-((7-isopropyl-1,3-dimethyl-1H-pyrazolo[4,3-b]pyridin-5-yl)methyl)urea], the results for the EC50 at S1P3, on S1P1 and on S1P2 were over 8300 nM, over 8300 nM and 0.1 nM, respectively.
`CCOc1cc(NC(=O)NNc2cc(C(C)C)c3c(n2)c(C)nn3C)ccn1` [Example 18, N-(2-ethoxypyridin-4-yl)-2-(7-isopropyl-1,3-dimethyl-1H-pyrazolo[4,3-b]pyridin-5-yl)hydrazinecarboxamide]: the EC50 at S1P3 is over 8300 nM; on S1P1, over 8300 nM; at S1P2, 266 nM.
For the molecule `COc1cc(OC)c(NC(=O)NNc2cc(C(C)C)c3c(n2)c(C)nn3C)cc1Cl` [Example 19, N-(5-chloro-2,4-dimethoxyphenyl)-2-(7-isopropyl-1,3-dimethyl-1H-pyrazolo[4,3-b]pyridin-5-yl)hydrazinecarboxamide], the figures for the concentration giving a half-maximal response (EC50) on S1P3, on S1P1 and on S1P2 were over 8300 nM, over 8300 nM and 40 nM, respectively.
Take `Cc1cc(NNC(=O)Nc2cc(Cl)cc(Cl)c2)nc2ncccc12` [Example 20, N-(3,5-dichlorophenyl)-2-(4-methyl-1,8-naphthyridin-2-yl)hydrazinecarboxamide]: the EC50 on S1P3 is over 8300 nM; on S1P1 it was over 8300 nM; at S1P2, 196 nM.
For the molecule `CC(C)c1cc(NNC(=O)Nc2cc(Cl)cc(Cl)c2)nc2ncccc12` [Example 21, N-(3,5-dichlorophenyl)-2-(4-isopropyl-1,8-naphthyridin-2-yl)hydrazinecarboxamide], the results for the EC50 at S1P3, at S1P1 and on S1P2 were over 8300 nM, over 8300 nM and 81 nM, respectively.
Turning to `Cc1ccc(C)c2c(C(C)C)cc(NNC(=O)Nc3cc(Cl)cc(Cl)c3)nc12` [Example 22, N-(3,5-dichlorophenyl)-2-(4-isopropyl-5,8-dimethylquinolin-2-yl)hydrazinecarboxamide], the EC50 was over 8300 nM at S1P3, over 8300 nM on S1P1 and 199 nM on S1P2.

The EC50 is the concentration that produces a half-maximal response.
